Results taken from patent publication US4874759A, “5-Hydroxyindole-3-carboxylic acid amide compounds, pharmaceutical compositions and use” (Yoshitomi Pharmaceutical Industries, Ltd., priority 1987, dated 1989).

Key:
[1] = Diuretic action (oral administration to rats; urine volume and electrolytes excreted within 6 hours); format: in vivo, Male Wistar strain rats; conditions: rat, p.o., average value ± average error
Protocol: Male Wistar strain rats (each weighing 180 to 220 g, six animals per group) were subjected to the experiment after they had been fasted for 18 hours and further deprived of food and water for 3 hours.
After the rats were orally administered with test compounds suspended in a 0.9% saline solution at the dose of 25 ml/kg, each of them was put in a metabolic cage. The urine excreted within 6 hours after the administration was collected, and the urine volume and sodium (Na), potassium (K) and chlorine (Cl) ions were assayed. The urine sodium and potassium ions were measured by the flame spectrophotometry and the chlorine ions were measured by the chloride counter.
The test compounds were the compounds described below in Examples and the following (as applies to the following Pharmacological Experimental Examples), and the compounds numbers respectively correspond to the compound numbers described at the end of the compound names recited in Examples and the following. In the table, each of the numerals represents average value±average error and the mark * designates that the value is statistically significant as compared with the control by P<0.05 and mark ** designates that the value is statistically signficant by P<0.01.

[2] = Acute toxicity (mortality) in mice; format: in vivo, ddY strain mice; conditions: ddY mice, 300 mg/kg
[3] = molecular target: T1, 5-lipoxygenase (Cavia porcellus, UniProt A0A286X958); assay: 5-Lipoxygenase-inhibitory action (5-HETE production from arachidonic acid); format: biochemical; conditions: 3.4 μM [1-14C] arachidonic acid, 105,000×g supernatant of guinea pig polymorph leukocyte, 30° C., 3 minutes; read-out: 50% inhibitory concentration against the production of 5-HETE
T1 construct: supernatant fraction of intraperitoneal polymorph leukocyte of guinea pigs was prepared; from tissue; host or cells: peritoneal polymorphonuclear leukocytes of male guinea pigs (casein-elicited), 105,000×g supernatant
T1 sequence (A0A286X958 1-674): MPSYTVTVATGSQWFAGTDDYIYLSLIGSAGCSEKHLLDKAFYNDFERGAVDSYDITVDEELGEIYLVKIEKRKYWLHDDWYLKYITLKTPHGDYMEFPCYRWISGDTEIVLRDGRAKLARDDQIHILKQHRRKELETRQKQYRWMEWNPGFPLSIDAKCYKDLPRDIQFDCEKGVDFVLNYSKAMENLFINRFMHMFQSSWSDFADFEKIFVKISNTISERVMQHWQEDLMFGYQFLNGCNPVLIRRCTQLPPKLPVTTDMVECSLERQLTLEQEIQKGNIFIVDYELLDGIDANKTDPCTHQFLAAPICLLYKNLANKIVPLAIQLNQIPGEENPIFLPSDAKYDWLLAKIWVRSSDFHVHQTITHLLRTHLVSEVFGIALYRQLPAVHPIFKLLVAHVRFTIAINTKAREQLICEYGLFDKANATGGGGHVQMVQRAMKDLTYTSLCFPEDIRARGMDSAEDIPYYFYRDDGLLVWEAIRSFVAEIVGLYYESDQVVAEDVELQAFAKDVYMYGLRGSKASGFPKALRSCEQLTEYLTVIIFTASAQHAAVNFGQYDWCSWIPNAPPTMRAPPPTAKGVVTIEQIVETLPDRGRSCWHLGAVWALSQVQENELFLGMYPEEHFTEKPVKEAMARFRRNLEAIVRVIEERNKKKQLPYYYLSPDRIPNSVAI
Protocol: In accordance with the method of Ochi et al (J. Biol. Chem., vol. 258, pp. 5754-5758 (1983)), the 105,000×g supernatant fraction of intraperitoneal polymorph leukocyte of guinea pigs was prepared, and the capability of producing 5-hydroxyeicosatetraenoic acid (5-HETE) from arachidonic acid was assayed.
Male guinea pigs weighing about 500 g were intraperitoneally administered with 1/10 volume (at the dose of 10 ml/100 g body weight) of a 2% casein solution and operated in the abdomen 16-18 hours after the administration. The intraperitoneal effusion was taken and the insdie of the abdomen was washed with a saline solution containing 10 mM phosphate buffer solution (pH 7.4) twice. The obtained effusion and the washing solution were collected and centrifuged at 150×g for five minutes. A 0.2% saline solution was added to the sediment, followed by hypotonic treatment to subject the mixed erythrocyte to hemolysis. After a 1.6% saline solution was added thereto to make the mixture isotonic, it was centrifuged in the same manner and suspended in 50 mM Hepes buffer solution (pH 8.0). The suspension was treated with supersonic waves (by Branson sonifier, model 185) and centrifuged at 10,000×g for 10 minutes. The supernatant was further centrifuged at 105,000×g for 60 minutes. The supernatant thus obtained was taken as the 5-lipoxygenase fraction which was freezed to -70° C. to be preserved. […]

[4] = tested on: left coronary artery; assay: Action on coronary blood flow (perfused left coronary artery of anesthetized dog); format: in vivo, mongrel adult dog; conditions: intracoronary, dose increasing coronary blood flow to 50% of the effect of 3 μg Nifedipine
Protocol: A mongrel adult dog was anesthetized by intravenous administration with sodium pentobarbital at the dose of 30 mg/kg body weight. In accordance with the method by Yago et al [Folia pharmacologica japonica, vol. 57, p. 380 (1961)], the left coronary artery was perfused and the volume of blood flow was measured. The test compounds were administered in the coronary artery at a dosage of 10 to 30 μl. The effects of the test compounds on the coronary blood flow were represented by ED50 (μg) which was determined as the dose required for increasing the coronary blood flow to the level of 50% of the effect which was attained by administering the coronary artery 3 μg of Nifedipine [dimethyl 2,6-dimethyl-4-(2-nitrophenyl)-1,4-dihydropyridine-3,5-dicarboxylate].

[5] = tested on: right vertebrartery; assay: Action on vertebrarterial blood flow (perfused right vertebral artery of anesthetized dog); format: in vivo, mongrel adult dog; conditions: into vertebral artery, maximum increase by 100 μg papaverine hydrochloride = 100%
Protocol: After mongrel adult dog was anesthetized by intravenous administration of sodium pentobarbital at the dose of 25 mg/kg body weight, the right vertebrartery was perfused and the volume of blood flow was measured. The test compounds were administered in the vertebral artery.
With the maximum increase rate in the blood flow being taken as 100% when 100 μg of papaverine hydrochloride (1-[(3,4-dimethoxyphenyl)methyl]-6,7-dimethoxyisoquinoline hydrochloride) was administered in the vertebral artery, the effects of the test compounds were represented by ED100 (μg) which denotes the dose required for attaining an increased rate of the blood flow of 100%.

## Cc1[nH]c2cc(Br)c(O)c(CN3CCCCC3)c2c1C(=O)N1CCOCC1 [Compound (2), 4-(6-Bromo-5-hydroxy-2-methyl-4-piperidinomethyl-1H-indol-3-ylcarbonyl)morpholine]
[1]; 3.0 mg/kg
  Excretion of Electrolyte, Cl: 349 ± 27 μeq/100 g body weight/ 6 hrs.
  Excretion of Electrolyte, K: 95 ± 7 μeq/100 g body weight/ 6 hrs.
  Excretion of Electrolyte, Na: 284 ± 30 μeq/100 g body weight/ 6 hrs.
  Excretion of Electrolyte, Na/K: 3.1 ± 0.3
  Urine Volume: 2.0 ± 0.2 ml/100 g body weight/ 6 hrs.
[2]; intraperitoneal
  Death of mice: none of them was observed to die
[2]; oral
  Death of mice: none of them was observed to die

## CCCCN(CCCC)C(=O)c1c(C)n(CCc2ccccc2)c2cc(C(=O)CC)c(O)c(CN3CCCCC3)c12 [Compound (4), N,N-Dibutyl-5-hydroxy-2-methyl-1-(2-phenylethyl)-4-piperidinomethyl-6-propionylindole-3-carboxamide]
[3]
  IC50: 20 µM
[4]
  Coronary vasodilating action, ED50: 12 µg
[5]
  Vertebrarterial vasodilating action, ED100: 63 µg

## CCCCCCn1c(C)c(C(=O)N(CCCC)CCCC)c2c(CN3CCCCC3)c(O)c(C(=O)CC)cc21 [Compound (6), N,N-dibutyl-1-hexyl-5-hydroxy-2-methyl-4-piperidinomethyl-6-propionylindole-3-carboxamide]
[4]
  Coronary vasodilating action, ED50: 10 µg
[5]
  Vertebrarterial vasodilating action, ED100: 48 µg

## CCCCNC(=O)c1c(C)n(CCCC)c2ccc(O)c(CN3CCCCC3)c12 [Compound (8), 1,N-Dibutyl-5-hydroxy-2-methyl-4-piperidinomethylindole-3-carboxamide]
[4]
  Coronary vasodilating action, ED50: 63 µg
[5]
  Vertebrarterial vasodilating action, ED100: 58 µg

## CCCCNC(=O)c1c(C)[nH]c2cc(Br)c(O)c(CN3CCCCC3)c12 [Compound (10), 6-Bromo-N-butyl-5-hydroxy-2-methyl-4-piperidinomethylindole-3-carboxamide]
[1]; 10.0 mg/kg
  Excretion of Electrolyte, Cl: 379 ± 35 μeq/100 g body weight/ 6 hrs.
  Excretion of Electrolyte, K: 73 ± 8 μeq/100 g body weight/ 6 hrs.
  Excretion of Electrolyte, Na: 402 ± 43 μeq/100 g body weight/ 6 hrs.
  Excretion of Electrolyte, Na/K: 5.8 ± 0.7
  Urine Volume: 2.6 ± 0.3 ml/100 g body weight/ 6 hrs.

## CCCCN(CCCC)C(=O)c1c(C)[nH]c2ccc(O)c(CN3CCCCC3)c12 [Compound (17), N,N-Dibutyl-5-hydroxy-2-methyl-4-piperidinomethylindole-3-carboxamide]
[1]; 10.0 mg/kg
  Excretion of Electrolyte, Cl: 358 ± 25 μeq/100 g body weight/ 6 hrs.
  Excretion of Electrolyte, K: 64 ± 4 μeq/100 g body weight/ 6 hrs.
  Excretion of Electrolyte, Na: 346 ± 28 μeq/100 g body weight/ 6 hrs.
  Excretion of Electrolyte, Na/K: 5.7 ± 0.9
  Urine Volume: 2.4 ± 0.2 ml/100 g body weight/ 6 hrs.

## CCCCN(CCCC)C(=O)c1c(C)n(-c2ccccc2)c2cc(C(=O)CC)c(O)c(CN3CCCCC3)c12 [Compound (25), N,N-Dibutyl-5-hydroxy-2-methyl-1-phenyl-4-piperidinomethyl-6-propionylindole-3-carboxamide]
[3]
  IC50: 19 µM
[4]
  Coronary vasodilating action, ED50: 22 µg
[5]
  Vertebrarterial vasodilating action, ED100: 76 µg
